pEC50: −log10 of the molar value.
The compounds below were run on Eotaxin-3 (CCL26) release in human whole blood stimulated with IL-4 (assay: Human whole blood eotaxin-3 assay (IL-4 stimulated eotaxin-3 release)). Settings: Homo sapiens, 48 h, human whole blood stimulated with recombinant human IL-4, 48 h; given for test compounds with <80% Emax; geometric mean.
Type: cell-based
How it was run: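 Eotaxin-3 (CCL26) release was quantified by MSD immunoassay in supernatants of human heparinised whole blood after 48 h at 37° C with IL-4 ([…] final). Compounds, in 4-fold dilutions at 0.5% DMSO, were added 2 h before stimulation.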
In the case of `CN(C)C(=O)c1ccc(C2=CCN(Cc3cc4c(-n5ccc6c(c5=O)CCN6)ccnc4n3C)CC2)cn1` [Example 1m70, N,N-dimethyl-1′-((1-methyl-4-(4-oxo-1,2,3,4-tetrahydro-5H-pyrrolo[3,2-c]pyridin-5-yl)-1H-pyrrolo[2,3-b]pyridin-2-yl)methyl)-1′, 2′, 3′, 6′-tetrahydro-[3,4′-bipyridine]-6-carboxamide], the Emax was 20 to 30%.
Compound `[2H]C([2H])([2H])N(C(=O)c1ccc(C2CCN(Cc3cc4c(-n5ccc(N)c(C)c5=O)ccnc4n3C)CC2)cc1)C([2H])([2H])[2H]` [Example 1d22, 4-[1-[[4-(4-Amino-3-methyl-2-oxo-1-pyridyl)-1-methyl-pyrrolo[2,3-b]pyridin-2-yl]methyl]-4-piperidyl]-N,N-bis(trideuteriomethyl)benzamide] has an Emax of 70 to 80%.
For `[2H]C([2H])([2H])N(C(=O)c1ccc(C2CCN(Cc3cc4c(-n5ccc6c(c5=O)CCN6)ccnc4n3C)CC2)cc1)C([2H])([2H])[2H]` [Example 1d24, 4-[1-[[1-Methyl-4-(4-oxo-2,3-dihydro-1H-pyrrolo[3,2-c]pyridin-5-yl)pyrrolo[2,3-b]pyridin-2-yl]methyl]-4-piperidyl]-N,N-bis(trideuteriomethyl)benzamide], the Emax was 70 to 80%.
With `C[C@H](c1cc2c(-n3ccc(N)c(F)c3=O)ccnc2n1C)N1CC=C(c2ccc(C(=O)N(C)C)cn2)CC1` (single isomer, unassigned) [Example 1m76] the Emax was under 20%.
In the case of `Cc1cc(C(=O)N(C)C)cc(F)c1C1CCN([C@H](C)c2cc3c(-n4ccc5c(c4=O)CCN5)ccnc3n2C)CC1` (single isomer, unassigned) [Example 1m120], the Emax was 40 to 50%.

Same assay, conditions: Homo sapiens, 48 h, human whole blood stimulated with recombinant human IL-4, 48 h; inhibition of eotaxin-3 release; given for test compounds with >80% Emax; geometric mean
Compound `CNc1nc(=O)n(-c2ccnc3c2cc([C@H](C)N2CC=C(c4c(C)cc(C(=O)N(C)C)cc4F)CC2)n3C)cc1F` [Example 1m129, (S)-3-fluoro-4-(1-(1-(4-(5-fluoro-4-(methylamino)-2-oxopyrimidin-1 (2H)-yl)-1-methyl-1H-pyrrolo[2,3-b]pyridin-2-yl)ethyl)-1,2,3,6-tetrahydropyridin-4-yl)-N,N,5-trimethylbenzamide] has a pEC50 of 8.39.
Work on `CN(C)C(=O)c1ccc(C2=CCN(Cc3cc4c(-n5ccc6c(c5=O)CCN6)ccnc4n3C)CC2)c(OC(F)(F)F)c1` [Example 1m146, NN-dimethyl-4-(1-((1-methyl-4-(4-oxo-1,2,3,4-tetrahydro-5H-pyrrolo[3,2-c]pyridin-5-yl)-1H-pyrrolo[2,3-b]pyridin-2-yl)methyl)-1,2,3,6-tetrahydropyridin-4-yl)-3-(trifluoromethoxy)benzamide] yielded a pEC50 of 6.81.
`[2H]C([2H])([2H])N(C(=O)c1cc(C)c(C2=CCN(Cc3cc4c(-n5ccc(N)nc5=O)ccnc4n3C)CC2)c(F)c1)C([2H])([2H])[2H]` [Example 1m78, 4-(1-((4-(4-amino-2-oxopyrimidin-1 (2H)-yl)-1-methyl-1H-pyrrolo[2,3-b]pyridin-2-yl)methyl)-1,2,3,6-tetrahydropyridin-4-yl)-3-fluoro-5-methyl-N,N-bis(methyl-d3)benzamide] was tested, and the pEC50 was 7.58.
Work on `[2H]C([2H])([2H])N(C(=O)c1cc(F)c(C2CCN(Cc3cc4c(-n5ccc(NC)cc5=O)ccnc4n3C)CC2)c(F)c1)C([2H])([2H])[2H]` [Example 1m102, 3,5-difluoro-N,N-bis(methyl-d3)-4-(1-((1-methyl-4-(4-(methylamino)-2-oxopyridin-1 (2H)-yl)-1H-pyrrolo[2,3-b]pyridin-2-yl)methyl)piperidin-4-yl)benzamide] yielded a pEC50 of 7.63.
`CNc1ccn(-c2ccnc3c2cc(CN2CC[C@@H](c4ccc(C(=O)N(C)C)cc4)C[C@H]2C)n3C)c(=O)c1` (single isomer, unassigned) [Example 1d42] showed a pEC50 of 6.82.
`CN(C)C(=O)c1cc(F)c(C2CCN(Cc3cc4c(-n5ccc6c(c5=O)CCN6)ccnc4n3C)CC2)c(F)c1` [Example 1m110, 3,5-difluoro-N,N-dimethyl-4-(1-((1-methyl-4-(4-oxo-1,2,3,4-tetrahydro-5H-pyrrolo[3,2-c]pyridin-5-yl)-1H-pyrrolo[2,3-b]pyridin-2-yl)methyl)piperidin-4-yl)benzamide] was tested, and the pEC50 was 7.82.
`CNc1cc(=O)n(-c2ccnc3c2cc([C@H](C)N2CC=C(c4c(C)cc(C(=O)N(C)C)cc4F)CC2)n3C)cc1OC` [Example 1m137, (S)-3-fluoro-4-(1-(1-(4-(5-methoxy-4-(methylamino)-2-oxopyridin-1 (2H)-yl)-1-methyl-1H-pyrrolo[2,3-b]pyridin-2-yl)ethyl)-1,2,3,6-tetrahydropyridin-4-yl)-N,N,5-trimethylbenzamide] showed a pEC50 of 6.23.
`CNc1ccn(-c2ccnc3c2cc(CN2CCC(c4ccc(C(=O)N(C)C)cc4)C[C@@H]2C)n3C)c(=O)c1` (single isomer, unassigned) [Example 1d43] gave a pEC50 of 7.66.
For `[2H]C([2H])([2H])N(C(=O)c1ccc(C2CCN([C@@H](C)c3cc4c(-n5ccc(NC)cc5=O)ccnc4n3C)CC2)cc1)C([2H])([2H])[2H]` [Example 1m74, (S)—N,N-bis(methyl-d3)-4-(1-(1-(1-methyl-4-(4-(methylamino)-2-oxopyridin-1 (2H)-yl)-1H-pyrrolo[2,3-b]pyridin-2-yl)ethyl)piperidin-4-yl)benzamide], the pEC50 was 7.89.
`CN(C)C(=O)c1cc(F)c(C2=CCN(Cc3cc4c(-n5ccc6c(c5=O)CCN6)ccnc4n3C)CC2)c(F)c1` [Example 1m107, 3,5-difluoro-N,N-dimethyl-4-(1-((1-methyl-4-(4-oxo-1,2,3,4-tetrahydro-5H-pyrrolo[3,2-c]pyridin-5-yl)-1H-pyrrolo[2,3-b]pyridin-2-yl)methyl)-1,2,3,6-tetrahydropyridin-4-yl)benzamide] showed a pEC50 of 7.62.
For `CNC(=O)c1cc(C)c(C2=CCN(Cc3cc4c(-n5ccc(NC)cc5=O)ccnc4n3C)CC2)c(F)c1` [Example 1m75, 3-fluoro-N,5-dimethyl-4-(1-((1-methyl-4-(4-(methylamino)-2-oxopyridin-1 (2H)-yl)-1H-pyrrolo[2,3-b]pyridin-2-yl)methyl)-1,2,3,6-tetrahydropyridin-4-yl)benzamide], the pEC50 was 7.75.
`CNc1ccn(-c2ccnc3c2cc(C(C)N2CC=C(c4c(C)cc(C(=O)N(C)C)cc4F)C(F)(F)C2)n3C)c(=O)c1` (centres unmarked) [Example 1m139, 4-(3,3-difluoro-1-(1-(1-methyl-4-(4-(methylamino)-2-oxopyridin-1 (2H)-yl)-1H-pyrrolo[2,3-b]pyridin-2-yl)ethyl)-1,2,3,6-tetrahydropyridin-4-yl)-3-fluoro-N,N,5-trimethylbenzamide] showed a pEC50 of 7.30.
In the case of `Cc1cc(C(=O)N(C)C)ccc1C1=CCN(Cc2cc3c(-n4ncc(N)cc4=O)ccnc3n2C)CC1` [Example 1ab5, 4-(1-((4-(4-Amino-6-oxopyridazin-1 (6H)-yl)-1-methyl-1H-pyrrolo[2,3-b]pyridin-2-yl)methyl)-1,2,3,6-tetrahydropyridin-4-yl)-N,N,3-trimethylbenzamide], the pEC50 was 5.82.
For `CNc1ccn(-c2ccnc3c2cc(CN2CC=C(c4ncc(C(=O)N(C)C)cc4C(F)(F)F)CC2)n3C)c(=O)c1` [Example 1m69, N,N-Dimethyl-6-[1-[[1-methyl-4-[4-(methylamino)-2-oxo-1-pyridyl]pyrrolo[2,3-b]pyridin-2-yl]methyl]-3,6-dihydro-2H-pyridin-4-yl]-5-(trifluoromethyl)pyridine-3-carboxamide], the pEC50 was 6.50.
`CNc1ccn(-c2ccnc3c2cc([C@H](C)N2CC=C(c4c(C)cc(C(=O)N(C)C)cc4F)CC2)n3C)c(=O)n1` [Example 1m106, (S)-3-fluoro-N,N,5-trimethyl-4-(1-(1-(1-methyl-4-(4-(methylamino)-2-oxopyrimidin-1 (2H)-yl)-1H-pyrrolo[2,3-b]pyridin-2-yl)ethyl)-1,2,3,6-tetrahydropyridin-4-yl)benzamide] was tested, and the pEC50 was 8.53.
`CNc1ccn(-c2ccnc3c2cc(CN2CCC(c4c(F)cc(C(=O)N(C)C)cc4F)CC2)n3C)c(=O)n1` [Example 1m95, 3,5-difluoro-N,N-dimethyl-4-(1-((1-methyl-4-(4-(methylamino)-2-oxopyrimidin-1 (2H)-yl)-1H-pyrrolo[2,3-b]pyridin-2-yl)methyl)piperidin-4-yl)benzamide] gave a pEC50 of 7.35.
Work on `[2H]C([2H])([2H])N(C(=O)c1cc(C)c(C2=CCN(Cc3cc4c(-n5ccc(N)cc5=O)ccnc4n3C)CC2)c(F)c1)C([2H])([2H])[2H]` [Example 1ad5, 4-[1-[[4-(4-Amino-2-oxo-1-pyridyl)-1-methyl-pyrrolo[2,3-b]pyridin-2-yl]methyl]-3,6-dihydro-2H-pyridin-4-yl]-3-fluoro-5-methyl-N,N-bis(trideuteriomethyl)-benzamide] yielded a pEC50 of 8.28.
Work on `CNc1ccn(-c2ccnc3c2cc(CN2CC=C(c4c(F)cc(C(=O)N(C)C)cc4F)CC2)n3C)c(=O)c1` [Example 1m90, 3,5-difluoro-N,N-dimethyl-4-(1-((1-methyl-4-(4-(methylamino)-2-oxopyridin-1 (2H)-yl)-1H-pyrrolo[2,3-b]pyridin-2-yl)methyl)-1,2,3,6-tetrahydropyridin-4-yl)benzamide] yielded a pEC50 of 7.54.
Compound `Cc1cc(C(=O)N(C)C)cc(F)c1C1=CCN(Cc2cc3c(-n4cc(F)c(N)cc4=O)ccnc3n2C)CC1` [Example 1ad10, 4-(1-((4-(4-amino-5-fluoro-2-oxopyridin-1 (2H)-yl)-1-methyl-1H-pyrrolo[2,3-b]pyridin-2-yl)methyl)-1,2,3,6-tetrahydropyridin-4-yl)-3-fluoro-N,N,5-trimethylbenzamide] has a pEC50 of 7.91.

Same assay, conditions: human whole blood stimulated with recombinant human IL-4, 48 h; inhibition of eotaxin-3 release; given for test compounds with >80% Emax; geometric mean
`CNc1ccn(-c2ccnc3c2cc([C@@H](C)N2CC[C@H](c4c(C)cc(C(=O)N(C)C)cc4F)C(F)(F)C2)n3C)c(=O)c1` (single isomer, unassigned) [Example 1m141] gave a pEC50 of 6.21.
`CNc1ccn(-c2ccnc3c2cc([C@H](C)N2CC[C@@H](c4c(C)cc(C(=O)N(C)C)cc4F)C(F)(F)C2)n3C)c(=O)c1` (stereo in doubt) [Example 1m142, 4-((S)-3,3-difluoro-1-((S)-1-(1-methyl-4-(4-(methylamino)-2-oxopyridin-1 (2H)-yl)-1H-pyrrolo[2,3-b]pyridin-2-yl)ethyl)piperidin-4-yl)-3-fluoro-N,N,5-trimethylbenzamide] was tested, and the pEC50 was 7.87.
